Results: ChEMBL document CHEMBL4715814, “Design, synthesis and biological activity evaluation of novel 4-subtituted 2-naphthamide derivatives as AcrB inhibitors” (2018)
Activity calls are given as the source filed them. The rule behind the calls is not given here.

What was measured:
Escherichia coli [1] = assay: Potentiation of TPP-induced antibacterial activity against wild type Escherichia coli BW25113 assessed as fold reduction in TPP MIC at 256 ug/ml incubated for 18 hrs under aerobic condition by checkerboard titration assay relative to TPP MIC alone; type: functional; conditions: dose 256 µg/ml
Escherichia coli [2] = assay: Potentiation of chloramphenicol-induced antibacterial activity against wild type Escherichia coli BW25113 assessed as fold reduction in chloramphenicol MIC at 256 ug/ml incubated for 18 hrs under aerobic condition by checkerboard titration assay relative to chloramphenicol MIC alone; type: functional; conditions: dose 256 µg/ml
Escherichia coli [3] = assay: (§1) Antibacterial activity against Wild type Escherichia coli BW25113 assessed as inhibition of AcrB efflux pump by mesuring the glucose-induced nile red efflux at 500 uM preincubated with CCCP for 15 mins followed by compound addition after 15 mins nile red added and incubated for 3 hrs in shaker by fluorimetric analysis; type: functional, organism-based; conditions: time 195.0 min
Cell membrane [4] = assay: Induction of outer membrane permeabilization in wild type Escherichia coli BW25113 assessed as increase in nitrocefin hydrolysis at 512 ug/ml measured for 30 mins in presence of CCCP by spectrophotometry analysis; type: subcellular; conditions: dose 512.0 µg/ml
Escherichia coli [5] = assay: Potentiation of chloramphenicol-induced antibacterial activity against AcrB deficient Escherichia coli BW25113 assessed as chloramphenicol MIC at 256 ug/ml incubated for 18 hrs under aerobic condition by checkerboard titration assay (reference value: 2 ug/ml); type: functional; conditions: dose 256 µg/ml
Escherichia coli [6] = assay: Potentiation of TPP-induced antibacterial activity against AcrB deficient Escherichia coli BW25113 assessed as TPP MIC at 256 ug/ml incubated for 18 hrs under aerobic condition by checkerboard titration assay (reference value: 256 ug/ml); type: functional; conditions: dose 256 µg/ml
Escherichia coli [7] = assay: Potentiation of erythromycin-induced antibacterial activity against AcrB deficient Escherichia coli BW25113 assessed as erythromycin MIC at 256 ug/ml incubated for 18 hrs under aerobic condition by checkerboard titration assay (reference value: 32 ug/ml); type: functional; conditions: dose 256 µg/ml
Escherichia coli [8] = assay: Potentiation of TPP-induced antibacterial activity against wild type Escherichia coli BW25113 assessed as TPP MIC at 256 ug/ml incubated for 18 hrs under aerobic condition by checkerboard titration assay (reference value: 1024 ug/ml); type: functional; conditions: dose 256 µg/ml
Escherichia coli [9] = assay: Potentiation of TPP-induced antibacterial activity against wild type Escherichia coli BW25113 assessed as TPP MIC at 128 ug/ml incubated for 18 hrs under aerobic condition by checkerboard titration assay (reference value: 1024 ug/ml); type: functional; conditions: dose 128 µg/ml
Escherichia coli [10] = assay: Potentiation of chloramphenicol-induced antibacterial activity against wild type Escherichia coli BW25113 assessed as chloramphenicol MIC at 256 ug/ml incubated for 18 hrs under aerobic condition by checkerboard titration assay (reference value: 16 ug/ml); type: functional; conditions: dose 256 µg/ml
Escherichia coli [11] = assay: Potentiation of chloramphenicol-induced antibacterial activity against wild type Escherichia coli BW25113 assessed as chloramphenicol MIC at 128 ug/ml incubated for 18 hrs under aerobic condition by checkerboard titration assay (reference value: 16 ug/ml); type: functional; conditions: dose 128 µg/ml
Escherichia coli [12] = assay: Potentiation of rifampicin-induced antibacterial activity against wild type Escherichia coli BW25113 assessed as rifampicin MIC at 128 ug/ml incubated for 18 hrs under aerobic condition by checkerboard titration assay (reference value: 16 ug/ml); type: functional; conditions: dose 128 µg/ml
Escherichia coli [13] = assay: Potentiation of rifampicin-induced antibacterial activity against wild type Escherichia coli BW25113 assessed as rifampicin MIC at 256 ug/ml incubated for 18 hrs under aerobic condition by checkerboard titration assay (reference value: 16 ug/ml); type: functional; conditions: dose 256 µg/ml
Cell membrane [14] = assay: Disruption of inner membrane potential in wild type Escherichia coli BW25113 at 512 ug/ml preincubated for 10 mins followed by glucose stimulation and CCCP addition by DiOC2 probe based fluorimetric analysis; type: subcellular; conditions: dose 512.0 µg/ml
Escherichia coli [15] = assay: Potentiation of erythromycin-induced antibacterial activity against wild type Escherichia coli BW25113 assessed as erythromycin MIC at 256 ug/ml incubated for 18 hrs under aerobic condition by checkerboard titration assay (reference value: 128 ug/ml); type: functional; conditions: dose 256 µg/ml
Escherichia coli [16] = assay: Potentiation of erythromycin-induced antibacterial activity against wild type Escherichia coli BW25113 assessed as erythromycin MIC at 128 ug/ml incubated for 18 hrs under aerobic condition by checkerboard titration assay (reference value: 128 ug/ml); type: functional; conditions: dose 128 µg/ml
Escherichia coli [17] = assay: Potentiation of TPP-induced antibacterial activity against AcrB deficient Escherichia coli BW25113 assessed as TPP MIC at 512 ug/ml incubated for 18 hrs under aerobic condition by checkerboard titration assay (reference value: 256 ug/ml); type: functional; conditions: dose 512 µg/ml
Escherichia coli [18] = assay: Potentiation of chloramphenicol-induced antibacterial activity against AcrB deficient Escherichia coli BW25113 assessed as chloramphenicol MIC at 512 ug/ml incubated for 18 hrs under aerobic condition by checkerboard titration assay (reference value: 2 ug/ml); type: functional; conditions: dose 512 µg/ml
Escherichia coli [19] = assay: Potentiation of erythromycin-induced antibacterial activity against AcrB deficient Escherichia coli BW25113 assessed as erythromycin MIC at 512 ug/ml incubated for 18 hrs under aerobic condition by checkerboard titration assay (reference value: 32 ug/ml); type: functional; conditions: dose 512 µg/ml
Escherichia coli [20] = assay: Potentiation of rifampicin-induced antibacterial activity against wild type Escherichia coli BW25113 assessed as rifampicin MIC at 512 ug/ml incubated for 18 hrs under aerobic condition by checkerboard titration assay (reference value: 16 ug/ml); type: functional; conditions: dose 512 µg/ml
Escherichia coli [21] = assay: Potentiation of TPP-induced antibacterial activity against wild type Escherichia coli BW25113 assessed as TPP MIC at 512 ug/ml incubated for 18 hrs under aerobic condition by checkerboard titration assay (reference value: 1024 ug/ml); type: functional; conditions: dose 512 µg/ml
Escherichia coli [22] = assay: Potentiation of chloramphenicol-induced antibacterial activity against wild type Escherichia coli BW25113 assessed as chloramphenicol MIC at 512 ug/ml incubated for 18 hrs under aerobic condition by checkerboard titration assay (reference value: 16 ug/ml); type: functional; conditions: dose 512 µg/ml
Escherichia coli [23] = assay: Potentiation of erythromycin-induced antibacterial activity against wild type Escherichia coli BW25113 assessed as erythromycin MIC at 512 ug/ml incubated for 18 hrs under aerobic condition by checkerboard titration assay (reference value: 128 ug/ml); type: functional; conditions: dose 512 µg/ml
Escherichia coli [24] = assay: as §1, with “100” for “500”; type: functional, organism-based; conditions: time 195.0 min
Escherichia coli [25] = assay: Potentiation of TPP-induced antibacterial activity against AcrB deficient Escherichia coli BW25113 assessed as TPP MIC at 32 ug/ml incubated for 18 hrs under aerobic condition by checkerboard titration assay (reference value: 256 ug/ml); type: functional; conditions: dose 32 µg/ml
Escherichia coli [26] = assay: Potentiation of chloramphenicol-induced antibacterial activity against AcrB deficient Escherichia coli BW25113 assessed as chloramphenicol MIC at 32 ug/ml incubated for 18 hrs under aerobic condition by checkerboard titration assay (reference value: 2 ug/ml); type: functional; conditions: dose 32 µg/ml
Escherichia coli [27] = assay: Potentiation of erythromycin-induced antibacterial activity against AcrB deficient Escherichia coli BW25113 assessed as erythromycin MIC at 32 ug/ml incubated for 18 hrs under aerobic condition by checkerboard titration assay (reference value: 32 ug/ml); type: functional; conditions: dose 32 µg/ml
Escherichia coli [28] = assay: Potentiation of chloramphenicol-induced antibacterial activity against wild type Escherichia coli BW25113 assessed as fold reduction in chloramphenicol MIC at 512 ug/ml incubated for 18 hrs under aerobic condition by checkerboard titration assay relative to chloramphenicol MIC alone; type: functional; conditions: dose 512 µg/ml

Row | SMILES | Activity (Cell membrane [4]) | MIC (Escherichia coli [8]) | MIC (Escherichia coli [9]) | MIC (Escherichia coli [10]) | MIC (Escherichia coli [11]) | MIC (Escherichia coli [12]) | MIC (Escherichia coli [13]) | Activity (Cell membrane [14]) | MIC (Escherichia coli [15]) | MIC (Escherichia coli [16]) | MIC (Escherichia coli [18]) | MIC (Escherichia coli [19]) | MIC (Escherichia coli [21]) | MIC (Escherichia coli [22]) | MIC (Escherichia coli [23]) | Activity (Escherichia coli [3]) | MIC (Escherichia coli [17]) | other results
1 | NC(=O)c1cc(OCCNCc2ccc(O)cc2)c2ccccc2c1 | inactive | 256 µg/mL | 1020 µg/mL | 4 µg/mL | 8 µg/mL | 8 µg/mL | 8 µg/mL | inactive | 128 µg/mL | 128 µg/mL |  |  |  |  |  | inactive |  | fold change (FC) (Escherichia coli [1]): 4; fold change (FC) (Escherichia coli [2]): 4; MIC (Escherichia coli [5]): 2 µg/mL; MIC (Escherichia coli [6]): 256 µg/mL; MIC (Escherichia coli [7]): 32 µg/mL
2 | CC(C)CCOc1cc(C(N)=O)cc2ccccc12 |  | 512 µg/mL |  | 8 µg/mL |  |  | 16 µg/mL |  | 64 µg/mL |  | 2 µg/mL | 32 µg/mL | 256 µg/mL | 4 µg/mL | 32 µg/mL |  | 256 µg/mL | MIC (Escherichia coli [20]): 16 µg/mL
3 | CC(C)CCOc1cc(C(=O)NCCc2ccccc2)cc2ccccc12 | inactive | 1020 µg/mL | 1020 µg/mL | 4 µg/mL | 8 µg/mL | 16 µg/mL | 16 µg/mL | inactive | 32 µg/mL | 64 µg/mL |  |  |  |  |  | inactive |  | MIC (Escherichia coli [25]): 32 µg/mL; MIC (Escherichia coli [26]): 2 µg/mL; MIC (Escherichia coli [27]): 2 µg/mL

The next lines start with results.

Row | Activity (Cell membrane [4]) | MIC (Escherichia coli [8]) | MIC (Escherichia coli [9]) | MIC (Escherichia coli [10]) | MIC (Escherichia coli [11]) | MIC (Escherichia coli [12]) | MIC (Escherichia coli [13]) | Activity (Cell membrane [14]) | MIC (Escherichia coli [15]) | MIC (Escherichia coli [16]) | MIC (Escherichia coli [18]) | MIC (Escherichia coli [19]) | MIC (Escherichia coli [21]) | MIC (Escherichia coli [22]) | MIC (Escherichia coli [23]) | SMILES | Activity (Escherichia coli [3]) | MIC (Escherichia coli [17]) | other results
4 |  | 1020 µg/mL |  | 16 µg/mL |  |  | 16 µg/mL |  | 64 µg/mL |  | 2 µg/mL | 32 µg/mL | 1020 µg/mL | 16 µg/mL | 32 µg/mL | O=C(NC1CCCCC1)c1cc(OCc2ccccc2)c2ccccc2c1 |  | 256 µg/mL | Activity (Escherichia coli [24]): Active
5 |  | 1020 µg/mL |  | 8 µg/mL |  |  | 16 µg/mL |  | 128 µg/mL |  | 0.5 µg/mL | 16 µg/mL | 1020 µg/mL | 2 µg/mL | 128 µg/mL | O=C(Nc1ccccc1C(F)(F)F)c1cc(OCc2ccccc2)c2ccccc2c1 |  |  | fold change (FC) (Escherichia coli [28]): 8
